Reference: patent US20250332173A1, “COMPOUNDS AND METHODS FOR MODULATING NUCLEIC ACID SPLICING” (REMIX THERAPEUTICS INC., priority 2021, published 2025)
Read-outs that look alike come from different tables or passages of the source.

Legend:
Type in all cases: cell-based, human
Target C [1] = assay: RT-qPCR splicing assay panel, Target C canonical junction (CJ) mRNA; conditions: Homo sapiens; Table 5 panel; canonical junction qPCR; compound concentration having 50% response in CJ decrease; read-out: Target C IC50 (decrease in CJ mRNA levels)
Procedure, shortened: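 Read-out is canonical exon-exon junction mRNA quantified by RT-qPCR against a GAPDH, GUSB or PPIA control. Cells (A673 or K562) received compound for 24 h, top final dose 10 uM in an 11-point 3-fold series.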

MYB mRNA = assay: RT-qPCR splicing assay, MYB canonical junction (CJ) and alternative junction (AJ) mRNA; conditions: Homo sapiens; for AC50: increase in MYB alternative junction (AJ) mRNA, read-out: MYB AJ AC50
Procedure, shortened: (§1)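 A673 cells (normalized to PPIA) or K562 cells (normalized to GAPDH or GUSB) were treated 24 h at 37 °C with an 11-point 3-fold dilution series, top 10 uM, DMSO ≤0.25%. Cell lysates went to one-step RT-qPCR measuring canonical- and alternative-junction MYB or HTT transcripts.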

HTT mRNA = assay: RT-qPCR splicing assay, HTT canonical junction (CJ) and alternative junction (AJ) mRNA; conditions: Homo sapiens; for AC50: increase in HTT alternative junction (AJ) mRNA, read-out: HTT AJ AC50
Procedure, shortened: as §1

Target C [2] = assay: HiBiT protein abundance assay, Target C (Promega Nano-Glo HiBiT Lytic Detection System, knock-in K562 cell line); conditions: Homo sapiens, K562, 24 h, HiBiT K562 cell line, 24 hours, top dose 10 μM; read-out: Effect on protein abundance, Target C (IC50 category)
Procedure, shortened: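 Knock-in K562 cells carrying HiBiT-tagged Target C, 10,000 per well, treated 24 h at 37 °C with 10-point threefold dilutions (top 10 μM final, ≤0.25% DMSO). Lytic HiBiT luminescence read; response normalised to unmodified K562 and DMSO controls, four-parameter fit interpolated at 50% for IC50.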

[3] = Table 5 panel, canonical junction qPCR, compound concentration having 50% response in CJ decrease, read-out: MYB IC50 (decrease in CJ mRNA levels)
[4] = decrease in MYB canonical junction (CJ) mRNA, RT-qPCR, read-out: MYB CJ IC50
[5] = decrease in HTT canonical junction (CJ) mRNA, RT-qPCR, read-out: HTT CJ IC50
[6] = Table 5 panel, canonical junction qPCR, compound concentration having 50% response in CJ decrease, read-out: HTT IC50 (decrease in CJ mRNA levels)

Cc1cn2cc(-c3cc(F)c4c(=O)n([C@H]5CNCC[C@@H]5O)cnc4c3)cc(F)c2n1 [Compound 348, 5-fluoro-7-{8-fluoro-2-methylimidazo[1,2-a]pyridin-6-yl}-3-[(3S,4S)-4-hydroxypiperidin-3-yl]quinazolin-4-one]
IC50 (Target C [1]): > 10 µM | IC50 (MYB mRNA; [3]): > 10 µM | IC50 (MYB mRNA; [4]): > 10 µM | AC50 (MYB mRNA; RT-qPCR): > 10 µM | IC50 (HTT mRNA; [5]): > 10 µM | AC50 (HTT mRNA; RT-qPCR): > 10 µM | IC50 (HTT mRNA; [6]): > 10 µM | IC50 (Target C [2]): > 10 µM

CCN1CCC(n2ncc3cc(-c4cc(C)c5nc(C)cn5n4)ccc3c2=O)CC1 [Compound 266]
IC50 (Target C [1]): 0.1 to 1 µM | IC50 (MYB mRNA; [3]): 0.1 to 1 µM | IC50 (MYB mRNA; [4]): < 0.1 µM | AC50 (MYB mRNA; RT-qPCR): 0.1 to 1 µM | IC50 (HTT mRNA; [5]): < 0.1 µM | AC50 (HTT mRNA; RT-qPCR): < 0.1 µM | IC50 (HTT mRNA; [6]): < 0.1 µM | IC50 (Target C [2]): 0.1 to 1 µM

Cc1cn2cc(-c3ccc4c(=O)n([C@@H]5CCN[C@@H](C)C5)cnc4c3)cc(F)c2n1 [Compound 293]
IC50 (Target C [1]): 1 to 10 µM | IC50 (MYB mRNA; [3]): 0.1 to 1 µM | IC50 (MYB mRNA; [4]): 0.1 to 1 µM | AC50 (MYB mRNA; RT-qPCR): 0.1 to 1 µM | IC50 (HTT mRNA; [5]): 1 to 10 µM | AC50 (HTT mRNA; RT-qPCR): 0.1 to 1 µM | IC50 (HTT mRNA; [6]): 0.1 to 1 µM | IC50 (Target C [2]): 1 to 10 µM

Cc1cn2nc(-c3cc(F)c4c(=O)n(C5CCNC6(CC6)C5)cnc4c3)cc(C)c2n1 (stereo not drawn) [Compound 351]
IC50 (Target C [1]): < 0.1 µM | IC50 (MYB mRNA; [3]): < 0.1 µM | IC50 (MYB mRNA; [4]): < 0.1 µM | AC50 (MYB mRNA; RT-qPCR): < 0.1 µM | IC50 (HTT mRNA; [5]): < 0.1 µM | AC50 (HTT mRNA; RT-qPCR): < 0.1 µM | IC50 (HTT mRNA; [6]): < 0.1 µM | IC50 (Target C [2]): < 0.1 µM

Cc1cn2nc(-c3cc(C)c4c(=O)n(C5CCNCC5)cnc4c3)cc(C)c2n1 [Compound 355]
IC50 (Target C [1]): 0.1 to 1 µM | IC50 (MYB mRNA; [3]): < 0.1 µM | IC50 (MYB mRNA; [4]): < 0.1 µM | AC50 (MYB mRNA; RT-qPCR): < 0.1 µM | IC50 (HTT mRNA; [5]): < 0.1 µM | AC50 (HTT mRNA; RT-qPCR): 0.1 to 1 µM | IC50 (HTT mRNA; [6]): 0.1 to 1 µM | IC50 (Target C [2]): < 0.1 µM

Cc1cn2cc(-c3cc(F)c4c(=O)n(C5CCNCC5)cnc4c3)cc(C)c2n1 [Compound 317]
IC50 (Target C [1]): 0.1 to 1 µM | IC50 (MYB mRNA; [3]): < 0.1 µM | IC50 (MYB mRNA; [4]): 0.1 to 1 µM | AC50 (MYB mRNA; RT-qPCR): < 0.1 µM | IC50 (HTT mRNA; [5]): 0.1 to 1 µM | AC50 (HTT mRNA; RT-qPCR): 0.1 to 1 µM | IC50 (HTT mRNA; [6]): 0.1 to 1 µM | IC50 (Target C [2]): 0.1 to 1 µM

Cc1cn2cc(-c3cc(F)c4c(=O)n(C5=CCNCC5)cnc4c3)cc(F)c2n1 [Compound 342]
IC50 (Target C [1]): 0.1 to 1 µM | IC50 (MYB mRNA; [3]): < 0.1 µM | IC50 (MYB mRNA; [4]): < 0.1 µM | AC50 (MYB mRNA; RT-qPCR): < 0.1 µM | IC50 (HTT mRNA; [5]): 0.1 to 1 µM | AC50 (HTT mRNA; RT-qPCR): < 0.1 µM | IC50 (HTT mRNA; [6]): < 0.1 µM | IC50 (Target C [2]): 0.1 to 1 µM

Cc1cn2cc(-c3ccc4c(=O)n(C5CCN[C@@H](C)C5)cnc4c3)cc(F)c2n1 (stereo partly drawn) [Compound 294]
IC50 (Target C [1]): 1 to 10 µM | IC50 (MYB mRNA; [3]): 0.1 to 1 µM | IC50 (MYB mRNA; [4]): 0.1 to 1 µM | AC50 (MYB mRNA; RT-qPCR): 0.1 to 1 µM | IC50 (HTT mRNA; [5]): 1 to 10 µM | AC50 (HTT mRNA; RT-qPCR): 1 to 10 µM | IC50 (HTT mRNA; [6]): 1 to 10 µM | IC50 (Target C [2]): 1 to 10 µM

Cc1cn2cc(-c3cc(F)c4c(=O)n([C@H]5CCNC[C@H]5F)cnc4c3)cc(F)c2n1 [Compound 338]
IC50 (Target C [1]): 1 to 10 µM | IC50 (MYB mRNA; [3]): < 0.1 µM | IC50 (MYB mRNA; [4]): < 0.1 µM | AC50 (MYB mRNA; RT-qPCR): < 0.1 µM | IC50 (HTT mRNA; [5]): 1 to 10 µM | AC50 (HTT mRNA; RT-qPCR): 0.1 to 1 µM | IC50 (HTT mRNA; [6]): 0.1 to 1 µM | IC50 (Target C [2]): 1 to 10 µM

Cc1cc(-c2ccc3c(=O)n(C4CCN(C)CC4)cnc3c2)cc2cn(C)nc12 [Compound 156]
IC50 (MYB mRNA; [3]): 1 to 10 µM | IC50 (MYB mRNA; [4]): 1 to 10 µM | AC50 (MYB mRNA; RT-qPCR): 1 to 10 µM | IC50 (HTT mRNA; [5]): 1 to 10 µM | AC50 (HTT mRNA; RT-qPCR): 1 to 10 µM | IC50 (HTT mRNA; [6]): 1 to 10 µM | IC50 (Target C [2]): > 10 µM

CN1CC=C(c2ccc3c(=O)n(-c4ccc5nn(C)cc5c4)cnc3c2)CC1 [Compound 159]
IC50 (MYB mRNA; [3]): > 10 µM | IC50 (MYB mRNA; [4]): > 10 µM | AC50 (MYB mRNA; RT-qPCR): > 10 µM | IC50 (HTT mRNA; [5]): > 10 µM | AC50 (HTT mRNA; RT-qPCR): > 10 µM | IC50 (HTT mRNA; [6]): > 10 µM | IC50 (Target C [2]): > 10 µM

Cc1cc(-c2ccc3c(=O)n(C4CC(C)(C)NC(C)(C)C4)cnc3c2)cc2cn(C)nc12 [Compound 157]
IC50 (MYB mRNA; [3]): 1 to 10 µM | IC50 (MYB mRNA; [4]): 1 to 10 µM | AC50 (MYB mRNA; RT-qPCR): 1 to 10 µM | IC50 (HTT mRNA; [5]): > 10 µM | AC50 (HTT mRNA; RT-qPCR): > 10 µM | IC50 (HTT mRNA; [6]): > 10 µM | IC50 (Target C [2]): 1 to 10 µM
